Source: patent publication US9365512B2, “Isoindoline derivatives, pharmaceutical compositions containing them, and their use in therapy” (AbbVie Deutschland GmbH & Co. KG, priority 2012, dated 2016)
pKi: −log10 of the molar value.

test system: not listed separately; assay: Metabolic stability in human liver microsomes (microsomal clearance); type: in vitro ADME; conditions: 0.5 μM test substance, 0.25 mg microsomal protein/ml, pH 7.4, 37° C., NADPH
Method: The metabolic stability of a compound can be measured for example by incubating a solution of this compound with liver microsomes from particular species (for example rat, dog or human) and determining the half-life of the compound under these conditions (RS Obach, Curr Opin Drug Discov Devel. 2001, 4, 36-44). It is possible in this connection to conclude from an observed longer half-life that the metabolic stability of the compound is improved. The stability in the presence of human liver microsomes is of particular interest because it makes it possible to predict the metabolic degradation of the compound in the human liver. Compounds with increased metabolic stability (measured in the liver microsome test) are therefore probably also degraded more slowly in the liver. The slower metabolic degradation in the liver may lead to higher and/or longer-lasting concentrations (active levels) of the compound in the body, so that the elimination half-life of the compounds of the invention is increased. Increased and/or longer-lasting active levels may lead to a better activity of the compound in therapeutic treatment. […]
Metabolic stability was determined as follows:
0.5 μM test substance was preincubated together with human liver microsomes (0.25 mg of microsomal protein/ml) in 0.05 M potassium phosphate buffer of pH 7.4 in microtiter plates at 37° C. for 5 min. […] The samples were frozen until analyzed. The remaining concentration of undegraded test substance was determined by LC MSMS. The half-life (T½) was determined from the gradient of the signal of test substance/unit time plot, allowing to calculate the half-life of the test substance, assuming first order kinetics, from the decrease in the concentration of the compound with time. The microsomal clearance (mCl) was calculated from mCl=ln 2/T½/(content of microsomal protein in mg/ml)×1000 (modified from references: Di, The Society for Biomolecular Screening, 2003, 453-462; Obach, DMD, 1999 vol 27. N 11, 1350-1359).

human mCl [µL/min/mg] | SMILES
<1 | Cn1cnc(S(=O)(=O)NCc2ccc3c(c2)C(Cc2ccccc2)NC3)c1 (centres unmarked) [Example 4, N-[(3-Benzylisoindolin-5-yl)methyl]-1-methyl-1H-imidazole-4-sulfonamide]

target: T1, human GlyT1c transporter (Homo sapiens, UniProt P48067); assay: Radioligand binding assay using recombinant CHO cell membranes expressing human GlyT1; conditions: read-out: radioligand binding Kiapp
T1 construct: expressed in transfected cells; host or cells: CHO cells (recombinant; membranes)
T1 sequence (P48067 1-706): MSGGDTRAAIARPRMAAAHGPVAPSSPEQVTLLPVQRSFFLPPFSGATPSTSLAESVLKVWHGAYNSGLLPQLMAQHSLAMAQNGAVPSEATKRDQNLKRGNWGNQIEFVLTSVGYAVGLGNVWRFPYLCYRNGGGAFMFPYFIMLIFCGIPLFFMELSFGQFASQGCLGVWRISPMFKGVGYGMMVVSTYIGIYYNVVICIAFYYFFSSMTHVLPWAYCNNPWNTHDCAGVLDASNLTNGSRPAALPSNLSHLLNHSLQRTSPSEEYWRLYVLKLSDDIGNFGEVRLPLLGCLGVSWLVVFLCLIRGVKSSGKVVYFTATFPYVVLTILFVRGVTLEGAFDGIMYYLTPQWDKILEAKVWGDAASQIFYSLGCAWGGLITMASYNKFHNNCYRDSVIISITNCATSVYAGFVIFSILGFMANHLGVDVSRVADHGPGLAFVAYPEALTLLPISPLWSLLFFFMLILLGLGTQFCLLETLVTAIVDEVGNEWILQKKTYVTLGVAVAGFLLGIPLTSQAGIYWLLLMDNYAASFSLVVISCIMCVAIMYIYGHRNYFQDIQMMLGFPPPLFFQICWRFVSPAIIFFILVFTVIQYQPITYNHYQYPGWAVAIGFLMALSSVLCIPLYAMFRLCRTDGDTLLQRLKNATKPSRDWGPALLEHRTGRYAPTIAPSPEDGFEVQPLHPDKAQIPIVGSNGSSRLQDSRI
Method: 2. Radioligand Binding Assays Using Recombinant CHO Cell Membranes Expressing Human GlyT1:
Radioligand binding to human GlyT1c transporter-expressing membranes was determined as described in Mezler et al., Molecular Pharmacology 74:1705-1715, 2008.

SMILES | pKi
CC(C)(C)OC(=O)NCCOc1ccc2c(c1)C(Cc1ccccc1)NC2=O (centres unmarked) [Example 3, [2-(3-Benzyl-1-oxo-2,3-dihydro-1H-isoindol-5-yloxy)-ethyl]-carbamic acid tert-butyl ester] | < 5.00
Cn1cnc(S(=O)(=O)NCc2ccc3c(c2)C(Cc2ccccc2)NC3)c1 (centres unmarked) [Example 4, N-[(3-Benzylisoindolin-5-yl)methyl]-1-methyl-1H-imidazole-4-sulfonamide] | > 6.00
Cn1cnc(S(=O)(=O)NCCOc2ccc3c(c2)C(C)(Cc2ccccc2)NC3=O)c1 (centres unmarked) [Example 8, N-[2-(3-Benzyl-3-methyl-1-oxo-isoindolin-5-yl)oxyethyl]-1-methyl-1H-imidazole-4-sulfonamide] | > 5.00
Cn1cc(S(=O)(=O)NCCOc2ccc3c(c2)C(C)(Cc2ccccc2)NC3=O)cn1 (centres unmarked) [Example 9, N-[2-(3-Benzyl-3-methyl-1-oxo-isoindolin-5-yl)oxyethyl]-1-methyl-1H-pyrazole-4-sulfonamide] | > 5.00
CN1Cc2ccc(OCCNS(=O)(=O)c3cnn(C)c3)cc2C1Cc1ccccc1 (centres unmarked) [Example 13, N-[2-(3-Benzyl-2-methyl-isoindolin-5-yl)oxyethyl]-1-methyl-1H-pyrazole-4-sulfonamide; 2,2,2-trifluoroacetic acid] | > 8.00
Cn1cc(S(=O)(=O)NCCOc2ccc3c(c2)C(Cc2ccccc2)N(CC(F)(F)F)C3)cn1 (centres unmarked) [Example 15, N-[2-[3-Benzyl-2-(2,2,2-trifluoroethyl)isoindolin-5-yl]oxyethyl]-1-methyl-1H-pyrazole-4-sulfonamide; 2,2,2-trifluoroacetic acid] | > 6.00
O=C1NC(Cc2ccccc2)c2cc(OCCNS(=O)(=O)CC3CC3)c(F)cc21 (centres unmarked) [Example 22, N-[2-(3-Benzyl-6-fluoro-1-oxo-2,3-dihydro-1H-isoindol-5-yloxy)-ethyl]-C-cyclopropyl-methanesulfonamide] | > 5.00
O=S(=O)(CC1CC1)NCCOc1cc2c(cc1F)CNC2Cc1ccccc1 (centres unmarked) [Example 23, N-[2-(3-Benzyl-6-fluoro-2,3-dihydro-1H-isoindol-5-yloxy)-ethyl]-C-cyclopropyl-methanesulfonamide] | > 6.00
CCS(=O)(=O)NCCOc1cc2c(cc1F)C(=O)NC2Cc1ccccc1 (centres unmarked) [Example 24, Ethanesulfonic acid [2-(3-benzyl-6-fluoro-1-oxo-2,3-dihydro-1H-isoindol-5-yloxy)-ethyl]-amide] | > 5.00
CCS(=O)(=O)NCCOc1cc2c(cc1F)CNC2Cc1ccccc1 (centres unmarked) [Example 25, Ethanesulfonic acid [2-(3-benzyl-6-fluoro-2,3-dihydro-1H-isoindol-5-yloxy)-ethyl]-amide] | > 5.00
CCCS(=O)(=O)NCc1ccc2c(c1)C(Cc1ccccc1)NC2=O (centres unmarked) [Example 28, Propane-1-sulfonic acid (3-benzyl-1-oxo-2,3-dihydro-1H-isoindol-5-ylmethyl)-amide] | > 5.00
O=S(=O)(CC1CC1)NCc1ccc2c(c1)C(Cc1ccccc1)NC2 (centres unmarked) [Example 29, N-(3-Benzyl-2,3-dihydro-1H-isoindol-5-ylmethyl)-C-cyclopropyl-methanesulfonamide] | > 5.00
CCS(=O)(=O)NCc1ccc2c(c1)C(Cc1ccccc1)NC2 (centres unmarked) [Example 30, Ethanesulfonic acid (3-benzyl-2,3-dihydro-1H-isoindol-5-ylmethyl)-amide] | > 4.00
CCCS(=O)(=O)NCc1ccc2c(c1)C(Cc1ccccc1)NC2 (centres unmarked) [Example 31, Propane-1-sulfonic acid (3-benzyl-2,3-dihydro-1H-isoindol-5-ylmethyl)-amide] | > 5.00

More lines, now with the values ahead:

pKi | SMILES
> 6.00 | Cn1cnc(S(=O)(=O)NCCOc2ccc3c(c2)C(Cc2ccccc2)NC3=O)c1 (centres unmarked) [Example 1, N-[2-(3-benzyl-1-oxo-isoindolin-5-yl)oxyethyl]-1-methyl-1H-imidazole-4-sulfonamide]
> 6.00 | Cn1cnc(S(=O)(=O)NCc2ccc3c(c2)C(Cc2ccccc2)NC3=O)c1 (centres unmarked) [Example 2, N-[(3-Benzyl-1-oxo-isoindolin-5-yl)methyl]-1-methyl-1H-imidazole-4-sulfonamide]
> 5.00 | Cn1cc(S(=O)(=O)NCCOc2ccc3c(c2)C(Cc2ccccc2)NC3=O)cn1 (centres unmarked) [Example 6, N-[2-(3-Benzyl-1-oxo-isoindolin-5-yl)oxyethyl]-1-methyl-1H-pyrazole-4-sulfonamide]
> 7.00 | Cn1cc(S(=O)(=O)NCCOc2ccc3c(c2)C(C)(Cc2ccccc2)NC3)cn1 (centres unmarked) [Example 10, N-[2-(3-Benzyl-3-methyl-isoindolin-5-yl)oxyethyl]-1-methyl-1H-pyrazole-4-sulfonamide]
> 7.00 | Cn1cnc(S(=O)(=O)NCCOc2ccc3c(c2)C(C)(Cc2ccccc2)NC3)c1 (centres unmarked) [Example 11, N-[2-(3-Benzyl-3-methyl-isoindolin-5-yl)oxyethyl]-1-methyl-imidazole-4-sulfonamide]
> 6.00 | Cn1cc(S(=O)(=O)NCCOc2ccc3c(c2)C(Cc2ccccc2)N(C(=O)C(F)(F)F)C3)cn1 (centres unmarked) [Example 12]
> 7.00 | CN1Cc2ccc(OCCNS(=O)(=O)c3cn(C)cn3)cc2C1Cc1ccccc1 (centres unmarked) [Example 14, N-[2-(3-Benzyl-2-methyl-isoindolin-5-yl)oxyethyl]-1-methyl-1H-imidazole-4-sulfonamide; 2,2,2-trifluoroacetic acid]
> 7.00 | Cn1cc(S(=O)(=O)NCCOc2ccc3c(c2)C(Cc2ccccc2)N(C2COC2)C3)cn1 (centres unmarked) [Example 16, N-[2-[3-Benzyl-2-(oxetan-3-yl)isoindolin-5-yl]oxyethyl]-1-methyl-1H-pyrazole-4-sulfonamide; 2,2,2-trifluoroacetic acid]
> 5.00 | CC1(Cc2ccccc2)NC(=O)c2ccc(OCCNS(=O)(=O)CC3CC3)cc21 (centres unmarked) [Example 17, N-[2-(3-Benzyl-3-methyl-1-oxo-isoindolin-5-yl)oxyethyl]-1-cyclopropyl-methanesulfonamide]
> 6.00 | CC1(Cc2ccccc2)NCc2ccc(OCCNS(=O)(=O)CC3CC3)cc21 (centres unmarked) [Example 18, N-[2-(3-Benzyl-3-methyl-isoindolin-5-yl)oxyethyl]-1-cyclopropyl-methanesulfonamide; 2,2,2-trifluoroacetic acid]
> 6.00 | Cn1cnc(S(=O)(=O)NCCOc2cc3c(cc2F)C(=O)NC3Cc2ccccc2)c1 (centres unmarked) [Example 19, N-[2-(3-Benzyl-6-fluoro-1-oxo-isoindolin-5-yl)oxyethyl]-1-methyl-1H-imidazole-4-sulfonamide]
> 6.00 | CN1Cc2cc(F)c(OCCNS(=O)(=O)CC3CC3)cc2C1Cc1ccccc1 (centres unmarked) [Example 20, N-(2-(3-Benzyl-6-fluoro-2-methylisoindolin-5-yloxy)ethyl)-1-cyclopropyl-methanesulfonamide]
> 7.00 | Cn1cnc(S(=O)(=O)NCCOc2cc3c(cc2F)CNC3Cc2ccccc2)c1 (centres unmarked) [Example 21, 1-Methyl-1H-imidazole-4-sulfonic acid [2-(3-benzyl-6-fluoro-2,3-dihydro-1H-isoindol-5-yloxy)-ethyl]-amide]
> 5.00 | O=C1NC(Cc2ccccc2)c2cc(CNS(=O)(=O)CC3CC3)ccc21 (centres unmarked) [Example 26, N-(3-Benzyl-1-oxo-2,3-dihydro-1H-isoindol-5-ylmethyl)-C-cyclopropyl-methanesulfonamide]
